The supplement of paper PMC11451515

Assays:
Conditions in all cases: 48 h
[1] = system: NOMO1; experiment: cell viability relative to DMSO control; higher = less cytotoxic
Outline: (§1)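 Leukemia cells (NOMO1 or SEM, 500 cells/well; P12-Ichikawa, 1000 cells/well) were seeded in 5 μl in 1536-well plates after at least four passages of adaptation to each medium. They received library compounds in DMSO by pin dosing, 11 threefold points from 47 μM to 0.79 nM. Luminescence with CellTiter-Glo One was read after 48 h at 37°C. Viability is stated per plate relative to DMSO wells, with cell-free wells as background.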

[2] = system: SEM cells; experiment: as above
Outline: as §1

[3] = system: P12-Ichikawa; experiment: as above
Outline: as §1

[4] = system: NOMO1; experiment: AUC of viability dose-response curve (% viability x log10 dose units); higher = less sensitive
Outline: (§2)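 Leukemia cells adapted to each medium (500 or 1000 cells/well, 1536-well plates) were exposed to library compounds in DMSO for 48 h at 37°C at 11 threefold doses, 47 μM to 0.79 nM. Luminescence by CellTiter-Glo One was normalised per plate to DMSO and cell-free wells, then fitted with a four-parameter log-logistic curve on log10 dose. Curves above full viability were scaled and quality-control failures removed before area under the curve was integrated by trapezoidal rule.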

[5] = system: SEM cells; experiment: as above
Outline: as §2

[6] = system: P12-Ichikawa; experiment: as above
Outline: as §2

[7] = RPMI 5 mM glucose + 10% FBS, 0.000781 µM
[8] = RPMI 5 mM glucose + 10% FBS, 0.00234 µM
[9] = RPMI 5 mM glucose + 10% FBS, 0.00702 µM
[10] = RPMI 5 mM glucose + 10% FBS, 0.0211 µM
[11] = RPMI 5 mM glucose + 10% FBS, 0.0632 µM
[12] = RPMI 5 mM glucose + 10% FBS, 0.19 µM
[13] = RPMI 5 mM glucose + 10% FBS, 0.569 µM
[14] = RPMI 5 mM glucose + 10% FBS, 1.71 µM
[15] = RPMI 5 mM glucose + 10% FBS, 5.12 µM
[16] = RPMI 5 mM glucose + 10% FBS, 15.4 µM
[17] = RPMI 5 mM glucose + 10% FBS, 46.1 µM
[18] = RPMI 5 mM glucose + 10% dialyzed FBS, 0.000781 µM
[19] = RPMI 5 mM glucose + 10% dialyzed FBS, 0.00234 µM
[20] = RPMI 5 mM glucose + 10% dialyzed FBS, 0.00702 µM
[21] = RPMI 5 mM glucose + 10% dialyzed FBS, 0.0211 µM
[22] = RPMI 5 mM glucose + 10% dialyzed FBS, 0.0632 µM
[23] = RPMI 5 mM glucose + 10% dialyzed FBS, 0.19 µM
[24] = RPMI 5 mM glucose + 10% dialyzed FBS, 0.569 µM
[25] = RPMI 5 mM glucose + 10% dialyzed FBS, 1.71 µM
[26] = RPMI 5 mM glucose + 10% dialyzed FBS, 5.12 µM
[27] = RPMI 5 mM glucose + 10% dialyzed FBS, 15.4 µM
[28] = RPMI 5 mM glucose + 10% dialyzed FBS, 46.1 µM
[29] = HPLM + 10% dialyzed FBS, 0.000781 µM
[30] = HPLM + 10% dialyzed FBS, 0.00234 µM
[31] = HPLM + 10% dialyzed FBS, 0.00702 µM
[32] = HPLM + 10% dialyzed FBS, 0.0211 µM
[33] = HPLM + 10% dialyzed FBS, 0.0632 µM
[34] = HPLM + 10% dialyzed FBS, 0.19 µM
[35] = HPLM + 10% dialyzed FBS, 0.569 µM
[36] = HPLM + 10% dialyzed FBS, 1.71 µM
[37] = HPLM + 10% dialyzed FBS, 5.12 µM
[38] = HPLM + 10% dialyzed FBS, 15.4 µM
[39] = HPLM + 10% dialyzed FBS, 46.1 µM
[40] = RPMI 5 mM glucose + 10% dialyzed FBS

SMILES: CN(c1ncccc1CNc1nc(Nc2ccc3c(c2)CC(=O)N3)ncc1C(F)(F)F)[S+](C)(=O)[O-]
- cell viability [1, 7]: 112%
- cell viability [1, 8]: 113%
- cell viability [1, 9]: 115%
- cell viability [1, 10]: 105%
- cell viability [1, 11]: 116%
- cell viability [1, 12]: 116%
- cell viability [1, 13]: 99.3%
- cell viability [1, 14]: 103%
- cell viability [1, 15]: 97.7%
- cell viability [1, 16]: 93.9%
- cell viability [1, 17]: 18.7%
- cell viability [1, 18]: 104%
- cell viability [1, 19]: 107%
- cell viability [1, 20]: 116%
- cell viability [1, 21]: 106%
- cell viability [1, 22]: 117%
- cell viability [1, 23]: 117%
- cell viability [1, 24]: 124%
- cell viability [1, 25]: 104%
- cell viability [1, 26]: 114%
- cell viability [1, 27]: 86.5%
- cell viability [1, 28]: 20.6%
- cell viability [2, 7]: 120%
- cell viability [2, 8]: 122%
- cell viability [2, 9]: 140%
- cell viability [2, 10]: 129%
- cell viability [2, 11]: 129%
- cell viability [2, 12]: 92.7%
- cell viability [2, 13]: 99%
- cell viability [2, 14]: 91.3%
- cell viability [2, 15]: 13%
- cell viability [2, 16]: 18.9%
- cell viability [2, 17]: 4.29%
- cell viability [2, 18]: 112%
- cell viability [2, 19]: 125%
- cell viability [2, 20]: 122%
- cell viability [2, 21]: 119%
- cell viability [2, 22]: 140%
- cell viability [2, 23]: 119%
- cell viability [2, 24]: 111%
- cell viability [2, 25]: 17.1%
- cell viability [2, 26]: 11.8%
- cell viability [2, 27]: 11.6%
- cell viability [2, 28]: 3.18%
- cell viability [3, 29]: 111%
- cell viability [3, 30]: 117%
- cell viability [3, 31]: 109%
- cell viability [3, 32]: 109%
- cell viability [3, 33]: 112%
- cell viability [3, 34]: 112%
- cell viability [3, 35]: 103%
- cell viability [3, 36]: 109%
- cell viability [3, 37]: 112%
- cell viability [3, 38]: 101%
- cell viability [3, 39]: 57.8%
- cell viability [3, 7]: 111%
- cell viability [3, 8]: 113%
- cell viability [3, 9]: 116%
- cell viability [3, 10]: 110%
- cell viability [3, 11]: 121%
- cell viability [3, 12]: 113%
- cell viability [3, 13]: 114%
- cell viability [3, 14]: 114%
- cell viability [3, 15]: 100%
- cell viability [3, 16]: 88.9%
- cell viability [3, 17]: 50.1%
- cell viability [3, 18]: 115%
- cell viability [3, 19]: 118%
- cell viability [3, 20]: 117%
- cell viability [3, 21]: 114%
- cell viability [3, 22]: 117%
- cell viability [3, 23]: 108%
- cell viability [3, 24]: 114%
- cell viability [3, 25]: 114%
- cell viability [3, 26]: 110%
- cell viability [3, 27]: 105%
- cell viability [3, 28]: 48.2%
- AUC of viability dose-response curve ([4]; HPLM + 10% dialyzed FBS): 451
- AUC of viability dose-response curve ([4]; RPMI 5 mM glucose + 10% FBS): 448
- AUC of viability dose-response curve [4, 40]: 446
- AUC of viability dose-response curve ([5]; HPLM + 10% dialyzed FBS): 362
- AUC of viability dose-response curve ([5]; RPMI 5 mM glucose + 10% FBS): 342
- AUC of viability dose-response curve [5, 40]: 321
- AUC of viability dose-response curve ([6]; HPLM + 10% dialyzed FBS): 462
- AUC of viability dose-response curve ([6]; RPMI 5 mM glucose + 10% FBS): 447
- AUC of viability dose-response curve [6, 40]: 459

SMILES: Cc1cc(CN2CCN(c3c(Br)cnc4[nH]c(-c5ccc(N6CCN(C)CC6)cc5)nc34)CC2)no1
- cell viability [1, 7]: 120%
- cell viability [1, 8]: 131%
- cell viability [1, 9]: 120%
- cell viability [1, 10]: 129%
- cell viability [1, 11]: 138%
- cell viability [1, 12]: 117%
- cell viability [1, 13]: 113%
- cell viability [1, 14]: 70.2%
- cell viability [1, 15]: 102%
- cell viability [1, 16]: 78.1%
- cell viability [1, 17]: 80.6%
- AUC of viability dose-response curve ([4]; HPLM + 10% dialyzed FBS): 377
- AUC of viability dose-response curve ([4]; RPMI 5 mM glucose + 10% FBS): 415
- AUC of viability dose-response curve [4, 40]: 410
- AUC of viability dose-response curve ([5]; HPLM + 10% dialyzed FBS): 317
- AUC of viability dose-response curve ([5]; RPMI 5 mM glucose + 10% FBS): 310
- AUC of viability dose-response curve [5, 40]: 307
- AUC of viability dose-response curve ([6]; HPLM + 10% dialyzed FBS): 329
- AUC of viability dose-response curve ([6]; RPMI 5 mM glucose + 10% FBS): 333
- AUC of viability dose-response curve [6, 40]: 348

SMILES: C/C=C/C[C@@H](C)C(=O)[C@H]1C(=O)N[C@@H](C(C)C)C(=O)N(C)CC(=O)N(C)[C@@H](CC(C)C)C(=O)N[C@@H](C(C)C)C(=O)N(C)[C@@H](CC(C)C)C(=O)N[C@@H](C)C(=O)N[C@H](C)C(=O)N(C)[C@@H](CC(C)C)C(=O)N(C)[C@@H](CC(C)C)C(=O)N(C)[C@@H](C(C)C)C(=O)N1C
- cell viability [2, 18]: 125%
- cell viability [2, 19]: 125%
- cell viability [2, 20]: 108%
- cell viability [2, 21]: 151%
- cell viability [2, 22]: 131%
- cell viability [2, 23]: 120%
- cell viability [2, 24]: 123%
- cell viability [2, 25]: 108%
- cell viability [2, 26]: 108%
- cell viability [2, 27]: 71.6%
- cell viability [2, 28]: 23.7%
- AUC of viability dose-response curve ([4]; HPLM + 10% dialyzed FBS): 441
- AUC of viability dose-response curve ([4]; RPMI 5 mM glucose + 10% FBS): 466
- AUC of viability dose-response curve [4, 40]: 461
- AUC of viability dose-response curve ([5]; HPLM + 10% dialyzed FBS): 427
- AUC of viability dose-response curve ([5]; RPMI 5 mM glucose + 10% FBS): 406
- AUC of viability dose-response curve [5, 40]: 424
- AUC of viability dose-response curve ([6]; HPLM + 10% dialyzed FBS): 424
- AUC of viability dose-response curve ([6]; RPMI 5 mM glucose + 10% FBS): 413
- AUC of viability dose-response curve [6, 40]: 411

SMILES: CN(Cc1cnc2nc(N)nc(N)c2n1)c1ccc(C(=O)N[C@@H](CCC(=O)O)C(=O)O)cc1
- cell viability [1, 7]: 116%
- cell viability [1, 8]: 125%
- cell viability [1, 9]: 123%
- cell viability [1, 10]: 135%
- cell viability [1, 11]: 121%
- cell viability [1, 12]: 136%
- cell viability [1, 13]: 107%
- cell viability [1, 14]: 104%
- cell viability [1, 15]: 73.1%
- cell viability [1, 16]: 26.7%
- cell viability [1, 17]: 24.4%
- cell viability [2, 29]: 115%
- cell viability [2, 30]: 141%
- cell viability [2, 31]: 122%
- cell viability [2, 32]: 133%
- cell viability [2, 33]: 119%
- cell viability [2, 34]: 53.5%
- cell viability [2, 35]: 43%
- cell viability [2, 36]: 37%
- cell viability [2, 37]: 25.7%
- cell viability [2, 38]: 18%
- cell viability [2, 39]: 15.2%
- AUC of viability dose-response curve ([4]; HPLM + 10% dialyzed FBS): 304
- AUC of viability dose-response curve ([4]; RPMI 5 mM glucose + 10% FBS): 390
- AUC of viability dose-response curve [4, 40]: 278
- AUC of viability dose-response curve ([5]; HPLM + 10% dialyzed FBS): 277
- AUC of viability dose-response curve ([5]; RPMI 5 mM glucose + 10% FBS): 328
- AUC of viability dose-response curve [5, 40]: 249
- AUC of viability dose-response curve ([6]; HPLM + 10% dialyzed FBS): 245
- AUC of viability dose-response curve ([6]; RPMI 5 mM glucose + 10% FBS): 277
- AUC of viability dose-response curve [6, 40]: 258

SMILES: CCCC1=NC(=C2[N]1NC(=N\C2=O)/C3=CC(=CC=C3OCC)[S+]([O-])(=O)N4CCN(CC)CC4)C
- cell viability [2, 18]: 125%
- cell viability [2, 19]: 115%
- cell viability [2, 20]: 128%
- cell viability [2, 21]: 131%
- cell viability [2, 22]: 143%
- cell viability [2, 23]: 134%
- cell viability [2, 24]: 140%
- cell viability [2, 25]: 145%
- cell viability [2, 26]: 106%
- cell viability [2, 27]: 10.4%
- cell viability [2, 28]: 6.51%
- AUC of viability dose-response curve ([4]; HPLM + 10% dialyzed FBS): 402
- AUC of viability dose-response curve ([4]; RPMI 5 mM glucose + 10% FBS): 409
- AUC of viability dose-response curve [4, 40]: 406
- AUC of viability dose-response curve ([5]; HPLM + 10% dialyzed FBS): 417
- AUC of viability dose-response curve ([5]; RPMI 5 mM glucose + 10% FBS): 407
- AUC of viability dose-response curve [5, 40]: 401
- AUC of viability dose-response curve ([6]; HPLM + 10% dialyzed FBS): 421
- AUC of viability dose-response curve ([6]; RPMI 5 mM glucose + 10% FBS): 402
- AUC of viability dose-response curve [6, 40]: 399
